The values below come from patent US6835382B2, “Ii peptide therapeutics to enhance antigen presentation” (University of Massachusetts, priority 1996, dated 2004).

Positions of bridges follow the written chain, without caps; N, C: chain ends. Non-standard residues stand in square brackets, D forms with d. No end group written: not given here. hArg = N=C(N)NCCCC[C@H](N)C(=O)O; Cit = NC(=O)NCCC[C@H](N)C(=O)O

The target in assay [1] is T1, murine E^d MHC class II allele (Mus musculus, UniProt P01904+P01915).
T1 sequence (P01904 26-255): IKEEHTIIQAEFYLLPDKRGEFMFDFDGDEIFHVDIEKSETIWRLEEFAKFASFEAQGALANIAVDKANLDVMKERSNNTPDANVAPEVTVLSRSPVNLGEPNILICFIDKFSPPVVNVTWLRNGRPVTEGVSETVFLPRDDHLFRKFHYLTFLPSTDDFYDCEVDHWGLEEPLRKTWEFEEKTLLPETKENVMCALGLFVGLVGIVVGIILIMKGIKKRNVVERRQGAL
T1 sequence (P01915 27-264 limits assumed): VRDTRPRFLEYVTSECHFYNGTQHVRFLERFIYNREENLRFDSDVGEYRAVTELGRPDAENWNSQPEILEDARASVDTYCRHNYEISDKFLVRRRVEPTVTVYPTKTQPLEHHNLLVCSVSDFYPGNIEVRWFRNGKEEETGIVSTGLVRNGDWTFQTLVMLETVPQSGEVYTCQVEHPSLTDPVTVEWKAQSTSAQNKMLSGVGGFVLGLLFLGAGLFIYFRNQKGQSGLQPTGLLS
The assay is described as follows: simultaneous assay, E^d allele (A20 APC, G28.C9 T hybridoma, HEL106-116; HT-2 [3H]TdR readout). The class given is cell-based. On the set-up: The A20 and CH27 B cell lymphoma lines express H-2^d and H-2^k alleles, respectively; endogenous in cells; host or cells: A20 B cell lymphoma (mitomycin C-treated or paraformaldehyde-fixed). Summed up: (§1)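 Read-out is [3H]TdR incorporation into HT-2 indicator cells exposed to supernatant from a 24 h primary culture. That culture combined mitomycin C-treated APC (5×10^6 cells/mL, 0.025 mg/mL mitomycin C, 20 min, 37° C), peptide, effector compound and T hybridoma, all added at once.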

For assay [2], the system named is murine E^k MHC class II allele. Briefly: simultaneous assay, E^k allele (CH27 APC, TPc9.1 T hybridoma, THMCC82-103 or PGCC81-104). The class given is cell-based. Summed up:
as §1

[3] abbreviates: Table 16, AE peptide 4 μM, supernatant 1:8.
The mark [4] stands for this setting: Table 18, AE peptide 64 μM, supernatant 1:4.
Where [5] appears, read: Table 15, AE peptide 16 μM, supernatant 1:4.

Regarding Ac-LR HArg KYP Cit-NH2 [AE366], the “Times Baseline Response, E^d” value in assay [1] (setting [3]) came to 7.3. Besides, the “Times Baseline Response, E^k” value in assay [2] (setting [3]) is recorded as 49.4.

Ac-FK HArg MYP Cit-NH2 [AE371]: the “Times Baseline Response, E^d” value in assay [1] (setting [3]) was determined as 1.6. For the same substance, the “Times Baseline Response, E^k” value in assay [2] (setting [3]) was 1.5.

As for Ac-LRMMYP[Cit]-NH2 [AE367], the “Times Baseline Response, E^d” value in assay [1] (setting [3]) stood at 1.0. In addition, in assay [2] (setting [3]), the “Times Baseline Response, E^k” value was 6.6.

In the case of “cyclic LRMKLPK (bridge (positions not given here); also: cyclic, ring type not given here) [AE381, “head-to-tail” cyclization from the amino-terminus to the carboxyl-terminus of AE114]”, the “Times Baseline Response, E^d” value in assay [1] (setting [4]) was 2.1. In addition, in assay [1] (Tables 12 and 18), the “activity in simultaneous assay on E^d and E^k, in words” value is “weak”. The “Times Baseline Response, E^k” value in assay [2] (setting [4]) was determined as 0.56.

With Ac-LK HArg KYPK-NH2 [AE363], the “Times Baseline Response, E^d” value in assay [1] (setting [3]) worked out at 1.6. Besides, in assay [2] (setting [3]), the “Times Baseline Response, E^k” value worked out at 1.7.

In the case of Ac-LRMKNPF-NH2 [AE350], the “Times Baseline Response, E^d” value in assay [1] (setting [5]) is 28.6. The “Times Baseline Response, E^k” value in assay [2] (setting [5]) is on record as 24.2.

On to Ac-A[Cit]NKNPK-NH2 [AE351], for which the “Times Baseline Response, E^d” value in assay [1] (setting [5]) is 0.8. Further, the “Times Baseline Response, E^k” value in assay [2] (setting [5]) was determined as 1.6.

Regarding Ac-L[hArg]MKYPK-NH2 [AE360], in assay [1] (setting [3]), the “Times Baseline Response, E^d” value is on record as 5.8. Moreover, the “Times Baseline Response, E^k” value in assay [2] (setting [3]) was 2.5.

Consider Ac-LRMKLPK (lactam 4-C) [AE382], for which the “Times Baseline Response, E^d” value in assay [1] (setting [4]) was 1.9. In addition, in assay [1] (text on Table 18), the “activity in simultaneous assay on E^d, in words” value was “relatively inactive”. The “Times Baseline Response, E^k” value in assay [2] (setting [4]) came out at 18.1. Also, the “activity in simultaneous assay on E^k, in words” value in assay [2] (Tables 2 and 18) is given as “moderately active”.

Regarding Ac-L[hArg]LKYPK-NH2 [AE361], in assay [1] (setting [3]), the “Times Baseline Response, E^d” value turned out to be 8.2. Besides, the “Times Baseline Response, E^k” value in assay [2] (setting [3]) turned out to be 4.6.

As for Ac-LRMKYPN-NH2 [AE370], the “Times Baseline Response, E^d” value in assay [1] (setting [3]) turned out to be 8.7. Besides, the “Times Baseline Response, E^k” value in assay [2] (setting [3]) is 7.5.

For Ac-LRMKYP[Cit]-NH2 [AE364], the “Times Baseline Response, E^d” value in assay [1] (setting [3]) is 14.0. In assay [2] (setting [3]), the “Times Baseline Response, E^k” value stood at 16.6.

Ac-LR HArg MYPK-NH2 [AE365]: the “Times Baseline Response, E^d” value in assay [1] (setting [3]) was found to be 6.1. Besides, in assay [2] (setting [3]), the “Times Baseline Response, E^k” value was determined as 20.1.

Regarding Ac-LKMKYPK-NH2 [AE362], the “Times Baseline Response, E^d” value in assay [1] (setting [3]) was 1.2. The “Times Baseline Response, E^k” value in assay [2] (setting [3]) amounted to 1.3.

Take Ac-LR Orn K HArg PK-NH2 [AE340]: the “Times Baseline Response, E^d” value in assay [1] (setting [5]) is 46.6. Besides, the “Times Baseline Response, E^k” value in assay [2] (setting [5]) is on record as 39.5.

Ac-LRLKYPN-NH2 [AE368]: in assay [1] (setting [3]), the “Times Baseline Response, E^d” value was determined as 9.4. Moreover, the “Times Baseline Response, E^k” value in assay [2] (setting [3]) is given as 11.2.
